Results taken from patent US20160143955A1, “METHOD FOR ISOLATING STROMAL VASCULAR FRACTION” (AGENCY FOR SCIENCE, TECHNOLOGY AND RESEARCH, priority 2013, published 2016).

system: adipose-derived stem cells recovered from fat tissue; test: Yield of adipose-derived stem cells (ASCs) after seven days of growth, compared to the collagenase-based method; format: cell-based; conditions: mince 2.5 mins, incubate with agent at 37° C. for 1 hour; ASCs after seven days of growth vs collagenase-based method
Procedure: Fat tissue (adipose tissue) obtained as lipoaspirate or resected via surgeries are to be obtained prior conducting any of the methods as described herein. To ensure optimum cell viability, immediate isolation of stromal vascular fraction on the day the sample is obtained is recommended. However, the methods as described herein may be performed optimally within 24 hours of sample being obtained. If the methods of the present disclosure cannot be performed immediately upon harvest of sample or within 72 hours of the sample being obtained, the sample was stored at 4° C. In case of enzymatic digestion, the sample is brought to room temperature before proceeding to the isolation procedure.
Upon obtaining the sample as lipoaspirate, to remove debris, the fat tissue was washed with equal amount of buffer (such as phosphate buffered saline (PBS) or Hank's balanced salt solution (HBSS)). For example, for 50 cc or 50 gram volume of lipoaspirate, 50 ml of buffer was used. Washed sample was allowed to settle for a couple of minutes and fluid from the bottom was aspirated to leave fat layer in the top. Washing steps were repeated two times. Collected fat layer was divided into the different methods as described below.
i) Add an equal volume of collagenase solution (ml per gram or cc of fat pads) into one sterile vial and warm to 37° C. Typically, collagenase solution is composed of 2.5 μg/ml collagenase type I, 1% (wt/vol) Bovine Serum Albumin (BSA), 50 μg/ml D-glucose and 200 nM adenosine in buffer;
i) Place washed fat tissue into appropriate tubes. Add equal volume of HBSS solution. Usually 10 ml of fat is used for each variable for replicate treatment/plating. Resected fat is favorable for consistency of cell yield, but manually harvested lipoaspirates are acceptable though additional optimization work described below is recommended;
When homogenizer is to be used, mildly homogenize fat tissue samples at the lowest level setting for 1 min. As would be apparent to the skilled person in the art, different homogenizers would give very different results. […] Optimization for different type of fat tissues must be conducted to obtain optimized parameters and lengths of homogenizing time;
vi) Centrifuge samples at 450 g (about 1800 RPM) for 5 min to pellet dissociated stromal vascular fraction cells. […] Discard the top layer of floating mature adipocytes;
xii) Re-suspend pellet in buffer (PBS or HBSS; 1 ml per 100 cc original tissue). Sample out 10 μl and count cell number in 1:1 mixture of trypan blue by hemocytometer or automated cell counter.
xv) Plate into appropriate dishes and incubate culture plates in 37° C., 5% CO2 incubator. […]
The isolated stromal vascular fraction cells in the methods described above were analyzed for their qualities and yield of adipose-derived stem cells. […]

Compound | Yield (percentage yield of adipose-derived stem cells recovered)
CC(C)NCC(O)c1ccc(O)c(O)c1 (stereo not shown) [Isoprenaline, isoprenaline] | >70%
Triton-X | 0%
CNC[C@H](O)c1ccc(O)c(O)c1 [Epinephrine, epinephrine] | >85%
Sodium deoxycholate [Sodium deoxycholate (SOC)] | 0%
